Laboratory results taken from patent US20250099622A1, “COMPOSITIONS AND METHODS FOR EXPRESSING THERAPEUTICS” (priority 2022, published 2025).

How the values were obtained:
[1] = system: retinal ganglion cells (RGC); assay: NMDA excitotoxicity mouse model: RGC count by retinal Flatmount; type: in vivo, C57BL/6); details: AAV 4E+8 vg/eye IVT 28 days prior to NMDA
Procedure: This study was for evaluating the effect of adeno-associated viral (AAV) vectors on retinal ganglion cell protection following damage caused via N-methyl-D-aspartate (NMDA) administration in the mouse. […] Groups 7 and 8 were added to test a higher concentration of MK-801. […] This study was conducted in wild type mice (Mus musculus, C57BL/6).
300 μL of the 5 mM NMDA stock was combined with 300 μL of sterile PBS and 1 μL as injected on Day 0 for a final concentration of 2.5 mM NMDA.
300 μL of the 5 mM NMDA stock as combined with 300 μL of sterile-filtered MK-801 and 1 μL was injected on Day 0 for a final concentration of 2.5 mM NMDA/100 μM MK-801.
300 μL of the 5 mM NMDA stock was combined with 300 μL of sterile PBS and 1 μL was injected on Day 0 for a final concentration of 2.5 mM NMDA.
On Day −28 or Day 0 based on the experimental design, mice were given buprenorphine 0.01-0.05 mg/kg subcutaneously (SQ). Animals were then tranquilized for the intravitreal injections with ketamine/xylazine or inhaled isoflurane and one drop of 0.5% proparacaine HCl was applied to both eyes. The conjunctiva was gently grasped with Dumont #4 forceps, and the injection was made using a 33 G needle and a Hamilton syringe. After dispensing the syringe contents, the syringe needle was slowly withdrawn. Following the injection procedure, 1 drop of Ofloxacin ophthalmic solution was applied topically to the ocular surface with eye lube.
Eyes were enucleated and immediately fixed in 4% paraformaldehyde in phosphate-buffered saline (PBS) and stored overnight at 4° C. The following day, the eyes were transferred to cold immunocytochemistry (ICC) buffer (PBS containing 0.5% BSA and 0.2% Tween 20) until processing. Using a dissecting microscope, the eye was carefully trimmed of extraneous tissue at the limbus and, using fine curved scissors, the anterior chamber was removed. Retinas in the eye cup were rinsed with cold ICC buffer. Eye cups were placed in cold ICC buffer containing 1/100 rat anti-CNP36 (Groups 3-6 only; resuspended at 0.5 mg/mL in PBS) for 3 hours at 4° C. Eye cups were then washed extensively and stained with 1/200 donkey anti-rat Cy3 and 1/1,000 DAPI for 2-3 hours at 4° C. Groups 1 and 2 were stained with 1/500 TUJ-1 and 1/1000 DAPI, while Groups 7 and 8 were incubated with 1/1,000 DAPI alone. Eye cups were washed extensively but gently with cold ICC buffer. Using fine curved scissors and an eyelash knife, the retina was detached from the optic nerve head and removed from the RPE/choroid. Radial cuts were then made toward the center and retinas were flat mounted, covered, and sealed. 2D fluorescent microscopy images were acquired using an Olympus Bx63 upright fluorescent microscope. […] Images at 20× were acquired in 4 quadrants and a central 248.1×325.7 μm region was analyzed for RGC counts using Olympus cellSens and ImageJ software.
Groups 1 and 2 were stained with DAPI and TUJ-1 and images were captured at 20× (FIG. 10A). RGCs were counted in four quadrants, and cells/mm2 were averaged across each group.
Groups 3-8 were stained for DAPI and four images were captured for each retina at 20× approximately 600 μm from the optic nerve head. RGCs were counted in a central 248.1×325.7 μm region and cells/mm2 were averaged over each group (FIG. 10C).
The statistical analyses were performed on the Group 3-8 RGC data (one-way ANOVA followed by multiple comparisons using the Dunnett statistical hypothesis comparison).

[2] = system: HEK293 cells; assay: CNP-Fc ELISA of supernatant of AAV-transduced HEK293 cells; type: cell-based, Human
Procedure: C-type natriuretic peptide (CNP) has two isoforms, CNP-22 and CNP-53. Example 2 illustrates that CNP-36 fused with Fe increased the half-life of the CNP and also facilitated in purification and ELISA detection when compared to native (unfused) CNP. Transduction and CNP-Fc expression experiments were performed with three AAV vectors (AMI061, AMI087 and AMI0488). FIG. 1A is the pictorial depiction of the three vectors. FIGS. 1B-F illustrate additional vectors that can encode the CNP or the CNP fusion protein. Enzyme-linked immunoassay (ELISA) was developed for quantifying CNP-Fc fusion proteins in cell culture supernatants. The ELISA assay was used to quantify CNP-Fc expressed in HEK293 cells, human chondrocytes (HCH) cells, and human skeletal muscle cells (hSkMC) upon transduction with one of the three AAV constructs described herein.
Buffer and substrate. Coating buffer: 3.7 g sodium bicarbonate, 0.64 g sodium carbonate in 1 L of Milli Q water, pH 9.6. Stored at RT; Blocking buffer: Commercial Casein blocking buffer in PBS+ added 0.1% Tween20. Stored at 4° C.; Standard diluent: same as blocking buffer; Wash buffer: 1×PBS with 0.1% tween 20 (30 days expiry from date of manufacture); Coating Antibody (Ab): Human CNP Antibody (monoclonal), coating concentration was 2 μg/mL; Detection Ab: Goat pAb anti-human Fc. Diluted up to 1:20,000 final dilution in well. Stored at 4° C.; HRP: Streptavidin-HRP stock of 1 mg/mL, diluted up to 1:10,000. Stored at 4° C.; Substrate: TMB. Stored at 4° C.; and Stop solution: 2 N HCl. Stored at ambient temperature.
• 1. Coat 96-well plate with 2 μg/mL anti-CNP antibody final concentration per well in the coating buffer with a 50 μL volume and cover the plate with sealing cover. Put the plate at 4° C. overnight. • 2. Next day, remove the plate, wash thrice with wash buffer and tap the plate on the paper towel to remove excess solution. • 3. Add 300 μL of blocking buffer to each well using multichannel pipette. […] Add 50 μL stop solution and read plate at 450 nm with 600 as reference within 15 min. […]

[3] = NMDA mouse study: in-house CNP36-Fc ELISA of ocular (whole globe) and serum samples
Procedure: Animals in Groups 3-6 had terminal blood collected on Day 7. IBMX was used during blood collection to inhibit phosphodiesterase activity. […] Briefly, each syringe for cardiac puncture was pre-rinsed with a stock solution of 10 mM IBMX prior to drawing blood. All mice were sedated to a deep plane of sedation under isoflurane and euthanized via exsanguination. After each syringe was pre-rinsed with 10 mM IBMX, a 25 G needle was inserted into the heart and the animal was exsanguinated and euthanized, and blood was collected. The volume of blood collected was noted on the paperwork and the appropriate volume of IBMX was added into a 1.5 mL RNAse/DNAse-free microfuge tube. […]
Bioanalytical work and the accompanying analyses were performed at the conclusion of the study. […] Left eyes (OS) from all animals (n=8) in each group receiving the different AAV constructs were analyzed. […]
The CNP36 and CNP-Fc36 expression in ocular (whole globes) and serum samples was quantified using the commercial CNP36 ELISA kit and in-house CNP36-Fc ELISA (Example 2), respectively. […] After a 45 min incubation, plates were washed and CNP36-Fc was detected by the addition of 3,3′,5,5′-tetramethylbenzidine (TMB) substrate. The reaction was stopped by the addition of stop solution and the plate was read immediately at 450 nm along with the reference wavelength of 600 nm. […]

[4] = system: NIH3T3 cells (cGMP secreted); assay: EC50 for CNP-Fc constructs, cGMP ELISA of NIH3T3 supernatant; type: cell-based; details: NIH3T3, 30 minutes, 1.8 mM IBMX, cGMP secreted by the cells; FIG. 25B
Procedure: EC50 for CNP-Fc described herein were measured by ELISA. 2.5E+05 NIH3T3 cells/well were plated. […] After 30 minutes, supernatant was collected for cGMP determined via ELISA. FIG. 25A illustrates a standard curve of cGMP.

AMI088: purified fusion protein Fc1-(G4S)4-CNP36 (IgG1 Fc), SEQ ID NO: 133
RGC counts compared to sham AAV + NMDA group [1]: higher RGC counts | Concentration ([2]; CNP-Fc in HEK293 supernatant 5 days after transduction with 100,000 MOI of AAV2 N54 vector): 75 µg/mL | CNP-Fc expression compared to other CNP constructs ([2]; HEK293 supernatant, 100,000 MOI, 5 days): highest expression | CNP36-Fc expression in serum samples ([3]; Day 7 serum): Neither CNP36-Fc nor CNP36 were expressed | stability of CNP36-Fc in ocular samples ([3]; mouse, in vivo): stable and thus quantifiable | EC50 values (rank order) [4]: CNP-22 ≡Fc4-CNP36>Aflibercept-Fc4-CNP36>Fc1-CNP36>>Fc4-CNP22
